Data as given in patent publication US20190282580A1, “PRO-INFLAMMATORY ROLE FOR ADENOSINE UPTAKE AND METABOLISM” (priority 2016, published 2019).
Entries after “also recorded” stand apart in the source; their conditions may differ.

Experiments:
[1] = system: IFNβ; assay: IFNβ induction (TaqMan qRT-PCR) in primary human endothelial cells after dsDNA or hCMV; assay type: cell-based; conditions: for hCMV induced IFNβ: pre-treatment, siControl and siADA2-treated endothelial cells (HUVEC, HBMVEC, HDMVEC)
[2] = system: IRF3; assay: IRF3 nuclear translocation (in situ immunofluorescence) in primary human endothelial cells after dsDNA or hCMV; assay type: cell-based; conditions: primary human endothelial cells (HUVEC) supplemented with the substance, then DNA treatment or hCMV infection
Excerpt: (§1) Extracellular Ado supplementation enhances anti-viral innate responses: To date, all loss-of function mutations in ADA2 that cause PAN/DADA2 vasculitis either reduce protein levels of ADA2 or dramatically impair enzymatic activity of ADA2, such that loss of enzymatic activity in serum is the defining characteristic of the disease. Loss of ADA2 activity in serum alters catabolism of Ado/dAdo released into circulation from cells and tissues, or produced by dephosphorylation of extracellular ATP/dATP. Ado and dAdo are profoundly immuno-modulatory nucleosides, exerting many effects on cells. Vascular endothelial cells metabolize Ado/dAdo in blood, yet excessive or dysregulated Ado/dAdo signaling has not been examined in endothelium. To examine the effects of Ado on vascular endothelial cells, HUVEC were supplemented with extracellular Ado 24 h prior to treatment with DNA or infection with hCMV.
Cells: Primary human cells were obtained from Lonza as single donor aliquots. Wherever possible, both male and female donors were analyzed. Human umbilical vascular endothelial cells (HUVEC) and Human aortic endothelial cells (HAEC) were maintained in EGM-2 Bulletkit growth media (Lonza) supplemented with 2% HI-FBS. […]
IRF3 immunostaining: Cells were fixed with 4% PFA for 20 min, washed 3 times with 1×PBS, permeabilized with 0.2% Triton X-100 for 10 min, and blocked with 10% FBS for 30 min Cells were incubated with IRF-3 primary antibody (clone FL-425, Santa Cruz) at 1:200 dilution for 30 min and washed 3 times with 1×PBS. […] Images were acquired at 10× magnification on ImageXpress Micro (Molecular Devices), and images were analyzed using the enhanced translocation module of MetaXpress (Molecular Devices). Individual cells were scored as positive for nuclear translocation if >70% of IRF3 fluorescence was spatially correlated with DAPI fluorescence. […]

[3] = system: IFNβ; assay: IFNβ induction (TaqMan qRT-PCR) in primary human endothelial cells after dsDNA or hCMV; assay type: cell-based; conditions: for IFNβ induction: HUVEC supplemented with the substance, then DNA treatment or hCMV infection
Excerpt: as §1
Cells: Primary human cells were obtained from Lonza as single donor aliquots. Wherever possible, both male and female donors were analyzed. Human umbilical vascular endothelial cells (HUVEC) and Human aortic endothelial cells (HAEC) were maintained in EGM-2 Bulletkit growth media (Lonza) supplemented with 2% HI-FBS. Human dermal microvascular endothelial cells (HDMVEC), human brain microvascular endothelial cells (HBMVEC), and human kidney microvascular endothelial cells (HKMVEC) were maintained in EBM-2MV Bulletkit growth media (Lonza) supplemented with 5% HI-FBS. Normal human bronchial […] cells (NHBE) were maintained in BEGM Bulletkit growth media (Lonza). U937 were maintained in RPMI supplemented with 5% HI-FBS. For activation of cell-intrinsic innate immune responses through the STING-IFN-I pathway, all cells were stimulated for 3 h with poly dA:dT or VACV70 dsDNA (200-1000 ng/mL) using LyoVec as a transfection reagent (Invivogen), or infected for 3 h with hCMV MOLD at MOI=1.
Real-time PCR: Total RNA was extracted using the Quick-RNA MiniPrep Plus kit (Zymo Research). Total RNA (200-1000 ng) was used to synthesize complementary DNA using the qScript cDNA synthesis kit (Quanta). Samples were diluted 10-fold and gene expression was analyzed by real-time quantitative PCR on a CFX96 Touch Detection System (Bio-Rad) using FastStart SYBR Green Master Mix (Roche) or TaqMan Universal PCR Master Mix (ThermoFisher Scientific). […]

[4] = system: pro-inflammatory and anti-viral genes; assay: Pro-inflammatory cytokine and innate immune gene expression in endothelial cells (qRT-PCR, RNAseq); assay type: cell-based, human; conditions: for pro-inflammatory cytokine production: after viral infection, extracellular supplementation; for expression of IL-6 and TNF cytokines: endothelial cells after supplementation
Procedure: (§2) Real-time PCR: Total RNA was extracted using the Quick-RNA MiniPrep Plus kit (Zymo Research). Total RNA (200-1000 ng) was used to synthesize complementary DNA using the qScript cDNA synthesis kit (Quanta). Samples were diluted 10-fold and gene expression was analyzed by real-time quantitative PCR on a CFX96 Touch Detection System (Bio-Rad) using FastStart SYBR Green Master Mix (Roche) or TaqMan Universal PCR Master Mix (ThermoFisher Scientific).
RNAseq: Total RNA was extracted from 10^7 cultured cells using the Quick-RNA MiniPrep Plus kit (Zymo Research). RNA quality was assessed using an Agilent Tapestation, such that all samples should produce RIN^e scores above 9.0. For each sample, 500-1000 ng of total RNA was then prepared into an mRNA library using the Truseq Stranded mRNA Library Prep Kit (Illumina). Resulting libraries were then pooled at equimolar concentrations using Quant-iT PicoGreen dsDNA Assay Kit (Life Technologies) and were deep sequenced on an Illumina 2500 in Rapid Run Mode, producing between 10M and 90M single-end reads with lengths of 50 nucleotides per sample.
The single-end reads that passed Illumina filters were filtered for reads aligning to tRNA, rRNA, adapter sequences, and spike-in controls. The reads were then aligned to UCSC hg19 reference genome using TopHat (v 1.4.1). DUST scores were calculated with PRINSEQ Lite (v 0.20.3) and low-complexity reads (DUST>4) were removed from the BAM files. The alignment results were parsed via the SAMtools to generate SAM files. Read counts to each genomic feature were obtained with the htseq-count program (v 0.6.0) using the “union” option. After removing absent features (zero counts in all samples), the raw counts were then imported to R/Bioconductor package DESeq2 [5] to identify differentially expressed genes among samples. DESeq2 normalizes counts by dividing each column of the count table (samples) by the size factor of this column. The size factor is calculated by dividing the samples by geometric means of the genes. This brings the count values to a common scale suitable for comparison. P-values for differential expression are calculated using binomial test for differences between the base means of two conditions. These p-values are then adjusted for multiple test correction using Benjamin Hochberg algorithm to control the false discovery rate. […] Cluster analyses including principal component analysis (PCA) and hierarchical clustering were performed using standard algorithms and metrics. Hierarchical clustering was performed using complete linkage with Euclidean metric.

[5] = system: IFNβ; assay: IFNβ induction in monocytes; assay type: cell-based, human
Procedure: as §2
Lentivirus production for shRNA and CRISPR: For shRNA experiments, sequences were selected from the Sigma mission 2.0 library. For CRISPR experiments, sgRNA sequences selected using the CHOPCHOP algorithm and were cloned into the lentiCRISPrv2 vector […]. Plasmids were transformed and amplified in Dh5α competent E. Coli, and purified using the EndoFree Plasmid Maxi kit (QIAGEN). For lentivirus preparation, 293T cells seeded in 6-well plates and transfected with pLKO.1 or lentiCRIPRv2 plasmids and MISSION Lentiviral Packaging Mix (Sigma), using JetPrime transfection reagent (Polyplus). After 24 h, media was changed to full growth media supplemented with 30% FBS. After 48 h, lentiviral supernatants were collected and HUVEC or U937 cells were spin-infected by centrifugation for 1 h at 37 C at 2000 rpm. Cells were selected in 3 ug/mL puromycin media for 2 weeks.

[6] = system: STING; assay: STING mRNA expression (TaqMan qRT-PCR) in HUVEC; assay type: cell-based, human; conditions: supplemented cells, resting and stimulated
Procedure: as §2

[7] = system: vascular endothelium; conditions: references 22-24; cited from earlier work

Row | Compound | IRF3 activation / nuclear translocation [2] | IFNβ induction [3] | pro-inflammatory cytokine production [4] | STING mRNA levels / expression [6] | uptake of circulating nucleoside by the vascular endothelium [7] | further results
1 | OC[C@H]1O[C@@H](n2cnc3c2NC=NC[C@H]3O)C[C@@H]1O [pentostatin] |  |  |  |  |  | augmentation of IRF3 and IFNβ responses by extracellular Ado and dAdo ([1]; in the presence of pentostatin to inhibit ADA2, endothelial cells): enhanced
2 | CCNC(=O)[C@H]1O[C@@H](n2cnc3c(N)ncnc32)[C@H](O)[C@@H]1O [NECA, 5′-N-ethylcarboxamidoadenosine] | did not enhance; also recorded: no effect; also recorded: does not significantly affect | did not enhance; also recorded: does not significantly affect |  |  |  | 
3 | Nc1ncnc2c1ncn2[C@H]1C[C@H](O)[C@@H](CO)O1 [dAdo, 2′-deoxyadenosine] | significantly enhances; also recorded: augmented | significantly enhances; also recorded: augmented | enhances | up-regulated | within a few seconds | IFNβ induction [5]: enhanced
4 | Nc1ncnc2c1ncn2[C@@H]1O[C@H](CO)[C@@H](O)[C@H]1O [Ado, adenosine] | significantly enhanced; also recorded: augmented; also recorded: enhances | significantly enhanced; also recorded: augmented; also recorded: enhances | enhances |  | within a few seconds | IFNβ induction ([3]; listed as adenosine): enhances; expression of IL-6 and TNF cytokines [4]: enhanced expression; expression of IL-6 and TNF cytokines ([4]; listed as adenosine): enhances
5 | OCCN(CCO)c1nc(N2CCCCC2)c2nc(N(CCO)CCO)nc(N3CCCCC3)c2n1 [dipyridamole] |  |  |  |  |  | expression of pro-inflammatory and anti-viral genes ([4]; ADA2-depleted and dAdo-supplemented cells, whole-transcriptome RNAseq): broadly inhibited; cytokine production ([4]; ADA2/CECR1-depleted cells): reduces; IFNβ levels ([1]; TREX1-depleted cells): dampened; dIno-augmented IFNβ ([1]; cells supplemented with dIno, sensitivity to DPM): sensitive; hCMV induced IFNβ [1]: significantly reduced; also recorded: dose-dependent decrease; hCMV induced IFNβ ([1]; listed as Dipyridamole): reduced
6 | OC[C@H]1O[C@@H](n2cnc3c(O)ncnc32)C[C@@H]1O [dIno, deoxyinosine] |  |  |  | up-regulated |  | IFNβ mRNA induction ([3]; prolonged supplementation of HUVEC, dsDNA treatment): specifically augmented
